Source: patent US5607926A, “Cephalosporin antibiotics” (Microcide Pharmaceuticals, Inc., priority 1995, dated 1997)
Values after ≈ are worked out from the molar mass of the structure shown. Like-named read-outs stand apart in the source and are kept apart here.

Key:
S. aureus ATCC 29213 = experiment: In vitro antibacterial evaluation, MIC by agar dilution, S. aureus ATCC 29213; format: cell-based; settings: Staphylococcus aureus, ATCC29213
Outline: (§1)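 Log-phase cultures (4-6 h broth growth) are adjusted to 0.5 McFarland and diluted to give roughly 10^4 cfu per 1 μL spot. Spots go onto Mueller-Hinton agar containing test compound in two-fold dilutions (128 to ≤0.25 μg/mL), then plates incubate 16-20 hours at 35°-36° C before MIC reading.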

[1] = test system: S. aureus 76 (Meth^R)(lac^+); experiment: In vitro antibacterial evaluation, MIC by agar dilution, S. aureus 76; format: cell-based; settings: Staphylococcus aureus, read-out: MIC
Outline: as §1

[2] = test system: S. aureus Col8A (Meth^S)(lac^-); experiment: In vitro antibacterial evaluation, MIC by agar dilution, S. aureus Col8A; format: cell-based; settings: Staphylococcus aureus
Outline: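 Log-phase isolates were spot-inoculated at about 10^4 cfu onto Mueller-Hinton agar carrying duplicate two-fold compound levels, 128 μg/mL to ≤0.25 μg/mL, following NCCLS (1991). Plates were read after 16-20 h at 35°-36° C. The lowest growth-inhibiting concentration gave the MIC (μg/ml).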

S. haemolyticus (Meth^R) = experiment: In vitro antibacterial evaluation, MIC by agar dilution, S. haemolyticus; format: cell-based; settings: Staphylococcus haemolyticus, read-out: MIC
Outline: as §1

E. faecium ATCC 35667 = experiment: In vitro antibacterial evaluation, MIC by agar dilution, E. faecium ATCC 35667; format: cell-based; settings: Enterococcus faecium, ATCC35667, read-out: MIC
Outline: as §1

E. faecalis ATCC 29212 = experiment: In vitro antibacterial evaluation, MIC by agar dilution, E. faecalis ATCC 29212; format: cell-based; settings: Enterococcus faecalis, ATCC29212; E. faecalis ATCC 29212; read-out: MIC
Outline: as §1

E. coli ATCC 25922 = experiment: In vitro antibacterial evaluation, MIC by agar dilution, E. coli ATCC 25922; format: cell-based; settings: Escherichia coli, ATCC25922, read-out: MIC
Outline: as §1

P. aeruginosa ATCC 27853 = experiment: In vitro antibacterial evaluation, MIC by agar dilution, P. aeruginosa ATCC 27853; format: cell-based; settings: Pseudomonas aeruginosa, ATCC27853, read-out: MIC
Outline: as §1

[3] = test system: methicillinsusceptible S. aureus strain ATCC 13709; experiment: In vivo antibacterial evaluation, murine model for lethal bacteremic peritonitis; design: species or system S. aureus in female Swiss-Webster mice; settings: Staphylococcus aureus, ATCC13709, sc, 72 h, two equal SC doses at challenge and 2 hours later, mice, probit, read-out: ED50
Experimental: Groups of 5 female Swiss-Webster mice (Simonsen, Gilroy, Calif.) each are challenged by the intraperitoneal (IP) route with ten-fold increments of a bacterial inoculum. This permits calculation of the mean lethal dose (LD50) and the LD100. For preliminary evaluation of a new antibiotic, mice are challenged IP with an LD100 titer of bacteria. In two equal doses administered at the time of bacterial challenge and 2 hours later, groups of 10 mice each are treated subcutaneously with two-fold increments of the test drug and an antibiotic of known efficacy in mice and humans (i.e., positive control). Mice are observed for 72 h. Those alive at 72 h are considered long term survivors. The total drug dose in mg/kg that protects 50% of mice in a group from death is termed the mean protective dose (PD50). PD50 s are similarly determined for several pathogens. The quantitative endpoints for the new drug are then compared with those obtained with reference antibiotics.
Six ten-fold dilutions of inoculum suspended in 0.5 mL of sterilized 7% hog gastric mucin (Sigma) are injected IP in groups of 5 mice each. A control group of 5 mice receive mucin alone. Mice are observed for 72 h. Those alive at 72 h are considered long term survivors. The mean lethal dose (LD50) and 100% lethal dose (LD100) are determined by the probit test.
For antibiotic efficacy studies, mice are challenged IP with bacterial titers that will afford an LD100 for the test strain. In two equal doses administered at the time of bacterial challenge and 2 hours later, groups of 10 mice each are treated by the subcutaneous route (SC) with twofold increments of the test antibiotic; another group is treated similarly with a reference antibiotic of known efficacy in animals and man. Drug doses can range from 0.01 to 512 mg/kg. If the drug is poorly soluble, Tween 20 or propylene glycol will be employed to solubilize the drug. Animals are observed for 72 h. The 50% protective dose (PD50) is calculated in mg/kg by the probit method. The PD50 is the same as the 50% effective dose (ED50) and the 50% curative dose (CD50). Samples of blood from the hearts of all animals that die and from half the mice that survive are cultured on brain-heart infusion agar. Animals that received a protective dosage of the test drug will be alive at 72 h, although they may appear moderately ill to very ill during the observation period. […] Most of these mice will die within 6 to 48 h. Those alive at 72 h will be considered long term survivors.
(§2) data reported for challenge with methicillinsusceptible S. aureus strain

[4] = test system: methicillinsusceptible S. aureus strain ATCC 13709; experiment: Challenge strain MIC; format: cell-based; settings: Staphylococcus aureus
Experimental: The compounds of the invention were evaluated against several β-lactamresistant bacteria strains by determining the minimum inhibitory concentration (MIC, μg/ml) of each compound with respect to each strain. The MIC, the lowest concentration of antibiotic which inhibits growth of the test organism, was determined by the agar dilution method.
To determine the MIC for bacterial isolates, the test compound was incorporated in a series of two-fold dilutions into liquified Mueller-Hinton agar. Upon solidification, a number of different bacterial strains were spot inoculated with a replicating device onto the agar surface. […] The procedures used in these studies have been standardized by the National Committee for Clinical Laboratory Standards (NCCLS), as per the NCCLS publication entitled METHODS FOR DILUTION ANTIMICROBIAL SUSCEPTIBILITY TESTS (1991), which is incorporated herein by reference.
Aliquots of antimicrobial agents were prepared in phosphate buffered saline (PBS) at pH 7.2. Tween 20 or DMSO was used as a solubilizing vehicle as needed. Standard methods of vortexing, sonicating and gentle heat were used to facilitate solubilizing the test agent. Typically, the concentration of the stock solution was 10× that of the highest drug concentration tested. A 1.28 mg/mL stock solution was used with a subsequent highest working concentration of 128 μg/mL. Serial two-fold dilutions were done through ≤0.25 μg/mL. Each drug level was tested in duplicate. Two-fold drug dilutions were done in sterile 50 mL tubes with a final drug volume of 5 mL. Upon the addition of 45 mL of molten agar, a 10-fold dilution resulted. Two, 25 mL. plates were then poured into 15×150 mm square Petri plates with grids and allowed to harden.
A control plate with a reference drug, either cefotaxime, vancomycin or imipenem, was used as the positive growth control. Stock concentrations of reference antibiotics were prepared and frozen at -80° C. Upon preparation, the control plates were sealed and stored in the refrigerator for up to 1 week prior to use; however, imipenem control plates had to be prepared just prior to use. All test plates were used within 24 hours of preparation.
Satisfactory results were obtained where the inoculum contained about 10^4 colony forming units (cfu) ±0.5 logs. Starting with pure cultures of the test isolates on agar plates, a few isolated colonies were transferred to a tube of nutrient broth and allowed to grow 4-6 hours at 35°-36° C. to reach log-phase growth. Dropwise addition of the broth culture to PBS was done to match a 0.5 McFarland turbidity standard equal to 10^8 cfu/mL. This was further diluted ten-fold in PBS to reach a working inoculum concentration of 10^7 cfu/mL. When 1 μL of the working inoculum was applied to the agar surface a concentration of about 10^4 cfu per spot was obtained.
Disposable sterile 1 μL loops were used to inoculate test plates, with each isolate in a designated grid on the agar plate. An alternate method of inoculation involved the use of a replica plater, a device with 48 steel pins allowing the simultaneous inoculation of multiple isolates. After the spots had dried, the plates were incubated at 35°-36° C. for 16-20 hours. Endpoints were assessed as the minimum inhibitory concentration (MIC) of antimicrobial agent.
as §2

[5] = ATCC13709, S. aureus ATCC 13709, read-out: Challenge str MIC
[6] = S. aureus ATCC 29213, read-out: MIC

| Compound | MIC (S. aureus ATCC 29213) [µg/mL] | MIC [1] [µg/mL] | MIC [2] [µg/mL] | MIC (S. haemolyticus (Meth^R)) [µg/mL] | MIC (E. faecium ATCC 35667) [µg/mL] | MIC (E. faecalis ATCC 29212) [µg/mL] | MIC (E. coli ATCC 25922) [µg/mL] | MIC (P. aeruginosa ATCC 27853) [µg/mL] | ED50 [3] [mg/kg] | MIC [4, 5] [µg/mL] | MIC (S. aureus ATCC 29213; [6]) [µg/mL] | MIC ([4]; ATCC13709, read-out: Challenge str MIC) [µg/mL] |
| --- | --- | --- | --- | --- | --- | --- | --- | --- | --- | --- | --- | --- |
| O=C(Cc1ccccc1)N[C@@H]1C(=O)N2C(C(=O)O)=C(Sc3cccnc3-n3cccn3)CS[C@H]12 [Cmpd 103, (7R)-7-[(Phenylacetyl)amino]-3-(2-(pyrazol-1-yl)pyridin-3-ylthio)-3-cephem-4-carboxylic acid] | 0.25 (≈ 0.507 µM) | 8 (≈ 16.2 µM) | 0.25 (≈ 0.507 µM) | 4 (≈ 8.1 µM) | 2 (≈ 4.05 µM) | 1 (≈ 2.03 µM) | > 32 | > 32 | 2.67 | 0.125 (≈ 0.253 µM) | – | – |
| CCC(CC)O/N=C(\C(=O)N[C@@H]1C(=O)N2C(C(=O)O)=C(Sc3ccnn3-c3ccccc3)CS[C@H]12)c1csc(N)n1 [Cmpd 104, (7R)-7-[(Z)-2-(aminothiazol-4-yl)-2-(3-pentyloxyimino)acetamido]-3-(1-N-phenylpyrazol-5-ylthio)-3-cephem-4-carboxylic acid] | – | 4 (≈ 6.52 µM) | 0.5 (≈ 0.815 µM) | 4 (≈ 6.52 µM) | 4 (≈ 6.52 µM) | 2 (≈ 3.26 µM) | 8 (≈ 13 µM) | 16 (≈ 26.1 µM) | > 10 | 0.5 (≈ 0.815 µM) | 0.5 (≈ 0.815 µM) | – |
| CSCC(=O)N[C@@H]1C(=O)N2C(C(=O)O)=C(Sc3ccnn3-c3ccccc3)CS[C@H]12 [Cmpd 106, (7R)-7-[(methylthioacetyl)amino]-3-(1-N-phenylpyrazol-5-ylthio)-3-cephem-4-carboxylic acid] | – | 8 (≈ 17.3 µM) | 0.125 (≈ 0.27 µM) | 32 (≈ 69.2 µM) | 4 (≈ 8.65 µM) | 4 (≈ 8.65 µM) | > 32 | > 32 | 0.72 | – | 0.25 (≈ 0.54 µM) | 0.125 (≈ 0.27 µM) |
| O=C(CC1CC1)N[C@@H]1C(=O)N2C(C(=O)O)=C(Sc3ccnn3-c3ccccc3)CS[C@H]12 [Cmpd 107, (7R)-7-[(cyclopropylacetyl)amino]-3-(1-N-phenylpyrazol-5-ylthio)-3-cephem-4-carboxylic acid] | 0.25 (≈ 0.548 µM) | 16 (≈ 35 µM) | 0.25 (≈ 0.548 µM) | 32 (≈ 70.1 µM) | 8 (≈ 17.5 µM) | 8 (≈ 17.5 µM) | > 32 | > 32 | 1.58 | 0.125 (≈ 0.274 µM) | – | – |
| Nc1nc(/C(=N/OCC2CC2)C(=O)N[C@@H]2C(=O)N3C(C(=O)O)=C(Sc4ccnn4-c4ccccc4)CS[C@H]23)cs1 [Cmpd 108, (7R)-7-[(Z)-2-(2-aminothiazol-4-yl)-2-(cyclopropylmethyloxyimino)acetamido]-3-(1-N-phenylpyrazol-5-ylthio)-3-cephem-4-carboxylic acid] | – | 8 (≈ 13.4 µM) | 0.5 (≈ 0.837 µM) | 16 (≈ 26.8 µM) | 16 (≈ 26.8 µM) | 16 (≈ 26.8 µM) | 4 (≈ 6.69 µM) | 16 (≈ 26.8 µM) | > 10 | 0.5 (≈ 0.837 µM) | 0.5 (≈ 0.837 µM) | – |
| O=C(CSc1ccncc1)N[C@@H]1C(=O)N2C(C(=O)O)=C(Sc3ccnn3-c3ccccc3)CS[C@H]12 [Cmpd 110, (7R)-7-[(4-pyridylthioacetyl)amino]-3-(1-N-phenylpyrazol-5-ylthio)-3-cephem-4-carboxylic acid] | 0.25 (≈ 0.476 µM) | 8 (≈ 15.2 µM) | 0.25 (≈ 0.476 µM) | > 16 | 2 (≈ 3.8 µM) | 2 (≈ 3.8 µM) | > 32 | > 32 | 3.45 | 0.25 (≈ 0.476 µM) | – | – |
| O=C(O)C1=C(Sc2ccnn2-c2ccccc2)CS[C@@H]2[C@H](NC(=O)C3SCCS3)C(=O)N12 [Cmpd 115, (7R)-7-[(2-dithiolanylcarbonyl)amino]-3-(1-N-phenylpyrazol-5-ylthio)-3-cephem-4-carboxylic acid] | 0.25 (≈ 0.493 µM) | 8 (≈ 15.8 µM) | 0.25 (≈ 0.493 µM) | 32 (≈ 63.2 µM) | 8 (≈ 15.8 µM) | 4 (≈ 7.89 µM) | > 32 | > 32 | 3.04 | 0.25 (≈ 0.493 µM) | – | – |
| Cc1nnc(SCC(=O)N[C@@H]2C(=O)N3C(C(=O)O)=C(Sc4ccnn4-c4ccccc4)CS[C@H]23)s1 [Cmpd 118] | – | 8 (≈ 14.6 µM) | 0.125 (≈ 0.229 µM) | 32 (≈ 58.5 µM) | 4 (≈ 7.32 µM) | 4 (≈ 7.32 µM) | > 32 | > 32 | 3.38 | 0.06 (≈ 0.11 µM) | 0.25 (≈ 0.457 µM) | – |
